Results as given in patent US20090169573A1, “T-Cell Stimulatory Peptides From The Melanoma-Associated Chondroitin Sulfate Proteoglycan And Their Use” (priority 2004, published 2009).

Experiments:
CD4+ T-cell clone 25 = assay type: cell-based, human; conditions: for recognition by clone 25 of overlapping 16-mer peptides: IFN-γ ELISA
CD4+ T-cell clone 3 = experiment: IFN-γ production of CD4+ T-cell clone 3 on peptide-pulsed autologous EBV-B cells (ELISA); assay type: cell-based, human
CD4+ T-cells = experiment: CD4+ T-cell induction with peptide-loaded dendritic cells, IFN-γ ELISA of microcultures; assay type: cell-based, human
HLA-DR 11 = experiment: HLA restriction of clone 3: blocking antibodies and EBV-B cell lines with different HLA class II molecules; assay type: cell-based, human; conditions: peptide 5 μg/ml, IFN-γ production
Description: FIG. 14: Autologous EBV-B cells (15,000) pulsed with 16-mer MCSP peptide (aa 1281-1296 (SEQ ID NO:48), 5 μg/ml) were used as stimulator cells in the presence of different blocking antibodies. All antibodies were used at a final concentration of 5 μg/ml each.
FIG. 15: Several EBV-B cell lines with different HLA class II molecules were pulsed with peptide MCSP1281-1296 (SEQ ID NO:48; 5 μg/ml) and tested for recognition (at 15,000 cells per well) by the CD4^+ T cell clone (4,000 cells per well).
(§1) 8. Determination of HLA restriction element utilized by MCSP-specific CD4^+ T-cell clone 25 and 3: To analyze the HLA restriction of CD4^+ T-cell clone 25 and 3, three monoclonal antibodies directed against anti-DR (L243; BD Biosciences, San Jose, USA), anti-DQ (CSPVL3; Immunotech) or anti-DP (B7/21; BD Biosciences, San Jose, USA) were used to test which one inhibited the recognition of antigen-presenting cells by the clone. First EBV-B cells (1.5×10^4 per round-bottomed microtiter plate well) were incubated for 1 h at 37° C., 8% CO2 in the presence of the peptide (SEQ ID NO:9 for clone 25, SEQ ID NO:48 for clone 3). The antibodies were added at a concentration of 5 ng/ml. The CD4^+ T-cell clone 25 or 3 was then added at 4×10^3 per well.

HLA-DR11 = experiment: HLA restriction of clone 25: blocking antibodies and EBV-B cell lines with different HLA class II molecules; assay type: cell-based, human; conditions: IFN-γ production
Description: FIG. 6: Autologous EBV-B cells (1.5×10^4) pulsed with 1 μM of the 16-mer MCSP peptide […] (SEQ ID NO:9) were used as stimulator cells in the presence of different blocking antibodies (anti-DR, anti-DQ or anti-DP). Also a control with no antibody (no Ab) was set up. All antibodies were used at a final concentration of 5 μg/ml each.
FIG. 7: 1.5×10^4 cells of several EBV-B cell lines (LP2-, LB1981-, R12-, PV6-, AC 42- and 4800-EBV) with different HLA class II molecules (HLA-DR11 positive or HLA-DR11 negative) were pulsed/loaded for 1 h with MCSP peptide […] (SEQ ID NO:9) (1 μM, white bar) and tested for recognition by the CD4^+ T cell clone. As control, the cells were pulsed in the absence of protein (black spotted bar).
as §1
9. Determination of HLA-DR restriction element utilized by MCSP-specific CD4^+ T-cell clone 25: It was determined that cytokine secretion by the CD4^+ T-cell clone 25 occurred in response to EBV-B cells pulsed/loaded with MCSP-derived peptides restricted to HLA-DR. To further define the HLA-restriction element utilized by clone 25, additional EBV-B cell lines were used for peptide presentation as described above. In particular LP2-, LB1981-, R12-, PV6-, AC 42- and 4800-EBV which have with different HLA class II molecules (HLA-DR11 positive or HLA-DR11 negative) were used. They were pulsed/loaded for 1 h with 1 μM MCSP peptide […] […]

CD8+ T-cells = experiment: CD8+ T-cell induction with TAT-MCSP-peptide-loaded dendritic cells, IFN-γ ELISA of microcultures; conditions: donor 11325; long TAT-MCSP-peptide 10 μM; not with control peptide; FIG. 18
Description: After 3 weekly restimulations microcultures were tested for their IFN-γ production when stimulated with autologous EBV-B cells loaded with the TAT-MCSP peptide (SEQ ID NO:54) or a control peptide.
Aliquots of approximately 4,000 CD8^+ T-cells from each 96-well microculture were co-incubated with 15,000 stimulator cells and after 20 h the IFN-γ concentration in the supernatant was measured by ELISA. […] Bars represent standard deviations.
In order to isolate MCSP specific CD8^+ T cells, DCs were derived from monocytes of healthy donors using IL-4 and GM-CSF and loaded with the long TAT-MCSP-peptide of SEQ ID NO:54 at 20 μg/ml overnight so that potential T-cell epitopes within this peptide could be processed and presented by the cell. DCs were matured 6 h after peptide-loading by a cytokine cocktail (IL-1β, IL-6, TNF-α, PGE2) as described in Example 3 (b). Autologous CD8^+ T-cells were stimulated with protein-loaded mature DCs in 96-well-plates on the next day (FIG. 17). […]
Autologous EBV-B cells (5×10^5) were incubated for 18-20 h at 37° C. in the presence of 10 μg/ml or 20 μg/ml (compare Figure legends) of the MCSP peptide or an irrelevant control peptide as a negative control. […] After 18-20 h, supernatants were harvested and assessed for IFN-γ content using an ELISA assay with reagents from Medgenix Diagnostics-Biosource (Fleurus, Belgium). […]

[1] = autologous EBV-B cells pulsed 1 μM, 1 h, FIG. 4

Sequence: ETNAVGQDVSVLFRVT [SEQ ID NO:8]
- recognition by clone 25 of overlapping 16-mer peptides (CD4+ T-cell clone 25; [1]): recognized

Sequence: GYLVMVSRGALA [SEQ ID NO:46]
- recognition of truncated peptides by clone 3 (CD4+ T-cell clone 3; truncated peptides derived from SEQ ID NO:42, 5 μg/ml, IFN-γ ELISA, FIG. 13): shortest peptide efficiently recognized

Sequence: LAQGSAMPILPANLSVETNAVGQDVSVLFRVTGALQFGELQK [SEQ ID NO:3]
- number of microcultures with peptide-specific CD4+ T-cells generated (CD4+ T-cells; DCs loaded with the 42 mer overnight (50 μg/ml), matured by cytokine cocktail): 2
- number of peptide-specific T-cell clones obtained (CD4+ T-cells; from microculture C2, limiting dilution): 3
- IFN-γ production of clone C2/25 after stimulation with peptide-loaded autologous EBV-B-cells (CD4+ T-cell clone 25; 42 mer 5 μM overnight, not with EBV-B-cells with or without control peptide, FIG. 3): specific IFN-γ production

Sequence: PPSAGYLVMVSRGALA [SEQ ID NO:42]
- efficiency of stimulation of clone 3 among overlapping peptides (CD4+ T-cell clone 3; autologous EBV-B cells pulsed 5 μg/ml, 1 h, FIG. 12): most efficiently
- recognition by clone 3 of peptide-loaded autologous EBV-B cells in presence of anti-HLA-DR antibody (HLA-DR 11; FIG. 14): abolished
- recognition by clone 3 of peptide-loaded autologous EBV-B cells in presence of antibodies against HLA-DP or HLA-DQ (HLA-DR 11; FIG. 14): no influence
- presentation of peptide to clone 3 by EBV-B cell lines with different HLA class II typings (HLA-DR 11; FIG. 15): only those expressing HLA-DR 11 were able to present the peptide to clone 3

Sequence: VGQDVSVLFRVTGALQ [SEQ ID NO:9]
- efficiency of stimulation of clone 25 among overlapping 16-mer peptides (CD4+ T-cell clone 25; [1]): most efficiently
- recognition by clone 25 of overlapping 16-mer peptides (CD4+ T-cell clone 25; [1]): recognized
- peptide concentration found optimal to achieve CD4+ T-cell stimulation (CD4+ T-cell clone 25; titration experiments, clone 25): 2 µg/mL
- presentation of peptide to clone 25 by EBV-B cell lines with different HLA class II typings (HLA-DR11; LP2-, LB1981-, R12-, PV6-, AC 42- and 4800-EBV pulsed 1 μM 1 h, FIG. 7): only those expressing HLA-DRB1*11 (PV6-, AC 42- and 4800-EBV) were able to present the peptide to clone 25
- recognition by clone 25 of peptide-loaded autologous EBV-B cells in presence of anti-HLA-DR antibody (HLA-DR11; peptide 1 μM, FIG. 6): completely abolished
- recognition by clone 25 of peptide-loaded autologous EBV-B cells in presence of antibodies against HLA-DP or HLA-DQ (HLA-DR11; peptide 1 μM, FIG. 6): no influence

Sequence: YARAAARQARA [SEQ ID NO:53, TAT PDT variant peptide, reference compound]
- recognition by clone 3 of overlapping peptides of the 42-mer (CD4+ T-cell clone 3; autologous EBV-B cells pulsed 5 μg/ml, 1 h, IFN-γ ELISA, FIG. 12): not

Sequence: YARAAARQARAPPADIVFSVKSPPSAGYLVMVSRGALADEPP [SEQ ID NO:54]
- number of microcultures with peptide-specific CD4+ T-cells generated (CD4+ T-cells; DCs loaded with long TAT-MCSP-peptide at 20 μg/ml overnight, donor 11325): 3
- number of peptide-specific T-cell clones generated (CD4+ T-cells; from microculture F1, limiting dilution): 3
- Interferon-γ production of clone F1/3 after stimulation with peptide-loaded autologous EBV-B-cells (CD4+ T-cell clone 3; long TAT-MCSP-peptide 10 μM overnight, not with EBV-B-cells with or without control peptide, FIG. 11): specific Interferon-γ production
- IFN-γ production of CD8+ T-cells from microcultures after stimulation with peptide-loaded autologous EBV-B-cells (CD8+ T-cells): specific IFN-γ production
